# Earlier results as cited in publication PMC11528414 (Journal of the American Chemical Society, 2024).
# System: PANC-1
# Conditions: read-out: Reported Anticancer Activity PANC-1 (IC50); reported values
smiles,measurement,value
C[N+]1=C2C=C(NCCc3ccc(O)cc3)C(=O)c3[nH]cc(c32)CC1 [makaluvamine J],IC50,54 nM
